pKi: −log10 of the molar value. Counter-ions that a name gives are not always drawn.

In the experiment the test system is Human platelet aggregation caused by ADP. In words: Inhibition of ADP-induced platelet aggregation (Mimic-human PRP). The format is cell-based. The note with it: 20 μM ADP, human platelet concentrate diluted with PPP, absorption at 595 nm. A digest of the protocol: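 Ki came from non-linear sigmoidal fits of inhibition, measured as the 3-min rise in absorbance at 595 nm after 20 μM ADP, relative to 0/20 μM ADP controls. Platelets (3–4×10^8/mL in PPP-diluted human PRP) were exposed to 0.01–30 μM compound for 20 min at room temperature beforehand.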
For the compound `CCCc1cc2c(N3CCn4c(nnc4C(F)(F)F)C3)nc(N3CC4N=C(C)OC4C3)nc2s1` (centres unmarked) [Example 9-30, 7-[2-(2-Methyl-3a,4,6,6a-tetrahydro-pyrrolo[3,4-d]oxazol-5-yl)-6-propyl-thieno[2,3-d]pyrimidin-4-yl]-3-trifluoromethyl-5,6,7,8-tetrahydro-[1,2,4]triazolo[4,3-a]pyrazine], the pKi (commonly −log10 of the Ki, conventionally taken in molar units) was 9.52.

Take `CCCc1cc2c(N3CCn4c(nnc4C(F)(F)F)C3)nc(OCCNC(C)=O)nc2s1` [Example 7-29, N-{2-[6-Propyl-4-(3-trifluoromethyl-5,6-dihydro-8H-[1,2,4]triazolo[4,3-a]pyrazin-7-yl)-thieno[2,3-d]pyrimidin-2-yloxy]-ethyl}-acetamide]: the pKi is 8.51.

`CCCc1cc2c(N3CCn4c(nnc4C(F)(F)F)C3)nc(OCCCN3CCCC3=O)nc2s1` [Example 9-85, 1-{3-[6-Propyl-4-(3-trifluoromethyl-5,6-dihydro-8H-[1,2,4]triazolo[4,3-a]pyrazin-7-yl)-thieno[2,3-d]pyrimidin-2-yloxy]-propyl}-pyrrolidin-2-one]: the pKi is 5.70.

As to `CCCc1cc2c(N3CCn4c(nnc4C(F)(F)F)C3)nc(OCCC(=O)NC)nc2s1` [Example 9-66, N-Methyl-3-[6-propyl-4-(3-trifluoromethyl-5,6-dihydro-8H-[1,2,4]triazolo[4,3-a]pyrazin-7-yl)-thieno[2,3-d]pyrimidin-2-yloxy]-propionamide], the pKi was 8.28.

In the case of `CCCc1cc2c(N3CCn4c(nnc4C(F)(F)F)C3)nc(OC[C@@H]3CCCN3C(=O)C(C)C)nc2s1` [Example 8-33, 2-Methyl-1-{(S)-2-[6-propyl-4-(3-trifluoromethyl-5,6-dihydro-8H-[1,2,4]triazolo[4,3-a]pyrazin-7-yl)-thieno[2,3-d]pyrimidin-2-yloxymethyl]-pyrrolidin-1-yl}-propan-1-one], the pKi is 7.37.

Compound `CCCC(=O)N[C@@H]1CCCN(c2nc(N3CCn4c(nnc4C(F)(F)F)C3)c3cc(CCC)sc3n2)C1` [Example 7-7, Hydrochloric acid salt of N-{(R)-1-[6-Propyl-4-(3-trifluoromethyl-5,6-dihydro-8H-[1,2,4]triazolo[4,3-a]pyrazin-7-yl)-thieno[2,3-d]pyrimidin-2-yl]-piperidin-3-yl}-butyramide] showed a pKi of 7.20.

For the compound `CCCc1cc2c(N3CCn4c(nnc4C(F)(F)F)C3)nc(NC[C@@H]3CCN(C(=O)C(C)C)C3)nc2s1` [Example 8-21, 2-Methyl-1-((S)-3-{[6-propyl-4-(3-trifluoromethyl-5,6-dihydro-8H-[1,2,4]triazolo[4,3-a]pyrazin-7-yl)-thieno[2,3-d]pyrimidin-2-ylamino]-methyl}-pyrrolidin-1-yl)-propan-1-one], the pKi is 6.57.

`CCCc1cc2c(N3CCn4c(nnc4C(F)(F)F)C3)nc(OCCCNC=O)nc2s1` [Example 9-90, N-{3-[6-Propyl-4-(3-trifluoromethyl-5,6-dihydro-8H-[1,2,4]triazolo[4,3-a]pyrazin-7-yl)-thieno[2,3-d]pyrimidin-2-yloxy]-propyl}-formamide] had a pKi of 6.96.

On to `CCCc1cc2c(N3CCn4c(nnc4C(F)(F)F)C3)nc(OCCC(=O)N(C)C)nc2s1` [Example 9-67, N,N-Dimethyl-3-[6-propyl-4-(3-trifluoromethyl-5,6-dihydro-8H-[1,2,4]triazolo[4,3-a]pyrazin-7-yl)-thieno[2,3-d]pyrimidin-2-yloxy]-propionamide], for which the pKi is 7.01. This pKi and that of the compound before are within 0.2 log units of each other.

With `CCCc1cc2c(N3CCn4c(nnc4C(F)(F)F)C3)nc(N[C@@H]3CCN(C(=O)C(C)C)C3)nc2s1` [Example 8-18, 2-Methyl-1-{(R)-3-[6-propyl-4-(3-trifluoromethyl-5,6-dihydro-8H-[1,2,4]triazolo[4,3-a]pyrazin-7-yl)-thieno[2,3-d]pyrimidin-2-ylamino]-pyrrolidin-1-yl}-propan-1-one], the pKi is 7.39.

`CCCc1cc2c(N3CCn4c(nnc4C(F)(F)F)C3)nc(N(C)CCO)nc2s1` [Example 9-106, 2-{Methyl-[6-propyl-4-(3-trifluoromethyl-5,6-dihydro-8H-[1,2,4]triazolo[4,3-a]pyrazin-7-yl)-thieno[2,3-d]pyrimidin-2-yl]-amino}-ethanol] gave a pKi of 6.85.

Turning to `CCCc1cc2c(N3CCn4c(nnc4C(F)(F)F)C3=O)nc(OCCC(=O)O)nc2s1` [Example 9-59, 3-[4-(8-Oxo-3-trifluoromethyl-5,6-dihydro-8H-[1,2,4]triazolo[4,3-a]pyrazin-7-yl)-6-propyl-thieno[2,3-d]pyrimidin-2-yloxy]-propionic acid], the pKi is < 5.00.

For `CCCc1cc2c(N3CCn4c(nnc4C(F)(F)F)C3)nc(OCCN(C)C(C)=O)nc2s1` [Example 9-97, N-Methyl-N-{2-[6-propyl-4-(3-trifluoromethyl-5,6-dihydro-8H-[1,2,4]triazolo[4,3-a]pyrazin-7-yl)-thieno[2,3-d]pyrimidin-2-yloxy]-ethyl}-acetamide], the pKi is 8.22.

`CCCc1cc2c(N3CCn4c(nnc4C(F)(F)F)C3)nc(N(C)CCC#N)nc2s1` [Example 9-103, 3-{Methyl-[6-propyl-4-(3-trifluoromethyl-5,6-dihydro-8H-[1,2,4]triazolo[4,3-a]pyrazin-7-yl)-thieno[2,3-d]pyrimidin-2-yl]-amino}-propionitrile] showed a pKi of 7.15.

`CCCC(=O)N1CCN(c2nc(N3CCn4c(nnc4C(F)(F)F)C3)c3cc(CCC)sc3n2)CC1` [Example 7-15, Hydrochloric acid salt of 1-{4-[6-Propyl-4-(3-trifluoromethyl-5,6-dihydro-8H-[1,2,4]triazolo[4,3-a]pyrazin-7-yl)-thieno[2,3-d]pyrimidin-2-yl]-piperazin-1-yl}-butan-1-one] showed a pKi of 6.22.

Compound `CCCc1cc2c(N3CCn4c(nnc4C(F)(F)F)C3)nc(N3CCC[C@H](NC(=O)C(C)C)C3)nc2s1` [Example 7-11, Hydrochloric acid salt of N-{(S)-1-[6-Propyl-4-(3-trifluoromethyl-5,6-dihydro-8H-[1,2,4]triazolo[4,3-a]pyrazin-7-yl)-thieno[2,3-d]pyrimidin-2-yl]-piperidin-3-yl}-isobutyramide] showed a pKi of 6.55.

In turn, `CCCc1cc2c(N3CCn4c(nnc4C(F)(F)F)C3)nc(N3CC[C@H](NC(=O)CN)C3)nc2s1` [Example 1-101, 2-Amino-N-{(S)-1-[6-propyl-4-(3-trifluoromethyl-5,6-dihydro-8H-[1,2,4]triazolo[4,3-a]pyrazin-7-yl)-thieno[2,3-d]pyrimidin-2-yl]-pyrrolidin-3-yl}-acetamide] gave a pKi of 8.46.

`CCCc1cc2c(N3CCn4c(nnc4C(F)(F)F)C3)nc(N3CC[C@H](NC(=O)C4CCCC4)C3)nc2s1` [Example 9-5, Cyclopentanecarboxylic Acid {(S)-1-[6-propyl-4-(3-trifluoromethyl-5,6-dihydro-8H-[1,2,4]triazolo[4,3-a]pyrazin-7-yl)-thieno[2,3-d]pyrimidin-2-yl]-pyrrolidin-3-yl}-amide]: the pKi is 6.89.

Turning to `CCCc1cc2c(N3CCn4c(nnc4C(F)(F)F)C3)nc(-n3cc(NC(C)=O)cn3)nc2s1` [Example 9-57, N-{1-[6-Propyl-4-(3-trifluoromethyl-5,6-dihydro-8H-[1,2,4]triazolo[4,3-a]pyrazin-7-yl)-thieno[2,3-d]pyrimidin-2-yl]-1H-pyrazol-4-yl}-acetamide], the pKi is 6.39. Compared with the last compound, the pKi is 0.50 log units lower.

As for `CCCc1cc2c(N3CCn4c(nnc4C(F)(F)F)C3)nc(OCCNC(=O)OC)nc2s1` [Example 9-19, {2-[6-Propyl-4-(3-trifluoromethyl-5,6-dihydro-8H-[1,2,4]triazolo[4,3-a]pyrazin-7-yl)-thieno[2,3-d]pyrimidin-2-yloxy]-ethyl}-carbamic acid methyl ester], the pKi was 8.52. This pKi is 2.13 log units higher than that of the compound before.

Turning to `CCCc1cc2c(N3CCn4c(nnc4C(F)(F)F)C3)nc(OCCC(=O)NC3CCCC3)nc2s1` [Example 9-69, N-Cyclopentyl-3-[6-propyl-4-(3-trifluoromethyl-5,6-dihydro-8H-[1,2,4]triazolo[4,3-a]pyrazin-7-yl)-thieno[2,3-d]pyrimidin-2-yloxy]-propionamide], the pKi is 6.26.

Compound `CCCc1cc2c(N3CCn4c(nnc4C(F)(F)F)C3)nc(OCCCCNC(C)=O)nc2s1` [Example 9-89, N-{4-[6-Propyl-4-(3-trifluoromethyl-5,6-dihydro-8H-[1,2,4]triazolo[4,3-a]pyrazin-7-yl)-thieno[2,3-d]pyrimidin-2-yloxy]-butyl}-acetamide] had a pKi of 6.54.

Compound `CCCc1cc2c(N3CCn4c(nnc4C(F)(F)F)C3)nc(OCCC(N)=O)nc2s1` [Example 9-70, 3-[6-Propyl-4-(3-trifluoromethyl-5,6-dihydro-8H-[1,2,4]triazolo[4,3-a]pyrazin-7-yl)-thieno[2,3-d]pyrimidin-2-yloxy]-propionamide] gave a pKi of 8.22.

The compound `CCCc1cc2c(N3CCn4c(nnc4C(F)(F)F)C3)nc(OC(C)CNC(=O)OC)nc2s1` (centres unmarked) [Example 9-80, {2-[6-Propyl-4-(3-trifluoromethyl-5,6-dihydro-8H-[1,2,4]triazolo[4,3-a]pyrazin-7-yl)-thieno[2,3-d]pyrimidin-2-yloxy]-propyl}-carbamic acid methyl ester] gave a pKi of 7.82. This pKi lies 0.40 log units lower than the previous one.

With `CCCc1cc2c(N3CCn4c(nnc4C(F)(F)F)C3)nc(OCCNC(=O)C(C)C)nc2s1` [Example 7-31, N-{2-[6-Propyl-4-(3-trifluoromethyl-5,6-dihydro-8H-[1,2,4]triazolo[4,3-a]pyrazin-7-yl)-thieno[2,3-d]pyrimidin-2-yloxy]-ethyl}-isobutyramide], the pKi is 7.92.

`CCCc1cc2c(N3CCn4c(nnc4C(F)(F)F)C3)nc(OCCCNC(C)=O)nc2s1` [Example 9-87, N-{3-[6-Propyl-4-(3-trifluoromethyl-5,6-dihydro-8H-[1,2,4]triazolo[4,3-a]pyrazin-7-yl)-thieno[2,3-d]pyrimidin-2-yloxy]-propyl}-acetamide] showed a pKi of 6.37.
